Measurements reported in US6476252B1, “Flavorant compositions” (Givaudan Roure (International) SA, priority 1997, dated 2002).

Key:
oral cavity = assay: Expert panel evaluation in foods, beverages and consumer healthcare products; format: in vivo, human; conditions: for character of mayonnaise base / character of sour cream / character of vegetable dip: 500 ppm compound; for character of toothpaste base: peppermint flavored toothpaste base; for character of sour cream: regular fat sour cream; for character of vegetable dip: vegetable soup mix with regular fat sour cream
Experimental: Mouthwash base was prepared by mixing 0.08 parts mouthwash flavor (commercially available from Givaudan Roure Flavors Ltd.), 0.5 parts Pluronic F-127, 0.5 parts polysorbate 20, 0.35 parts sodium lauryl sulfate, 5 parts glycerine, 0.015 parts sodium saccharin and 93.555 parts water. […] Toothpaste base (Opaque 13/02-5F) was flavored with peppermint flavor (Givaudan Roure peppermint flavor 10570-34) at 0.5% by weight. […] Mayonnaise base was prepared by mixing 59.8 parts whole egg, 24 parts vinegar (white, 5% acidity), 1.3 parts mustard, 2 parts sugar, 1 part salt and 219 parts vegetable oil. […] An onion dip was prepared by mixing a commercial package of onion soup mix (Lipton) with plain, regular fat sour cream and 1000 ppm of compound 9 as described and prepared according to example 9. […] 2.5 parts Maltrin M-10 (commercially available) was mixed with 0.05 parts pizza flavor (SNE Pizza Flavor 810841). 50 parts potato chips ([…]) were placed on a paper plate then microwaved for 30-60 seconds until surface oil glistened. […] A chewing gum was prepared according to methods known to those skilled in the art.

tumor = conditions: H. Itokawa et al., Planta Medica (1987); cited from earlier work
fungi = conditions: A. M. Janssen et al., Planta Medica 1985; cited from earlier work
[1] = S. Mitsui et al., Chem. Pharm. Bull. (1976); cited from earlier work
Epstein-Barr virus = conditions: A. Kondo et al., Biosci. Biotech. Biochem. (1993); cited from earlier work
xanthin oxidase = conditions: T. Noro et al., Chem. Pharm. Bull. (1988); cited from earlier work

C=CC(OC(=O)C(C)C)c1ccc(OC(=O)C(C)C)cc1 (racemic) [Compound 5, (rac)-isobutyric acid 1-(4-isobutyryloxy-phenyl)-allyl ester]
sensation imparted by mouthwash base (oral cavity; 100 ppm compound): warm/hot, spicy and pungent sensation

C=CC(OC(C)=O)c1ccc(OC(C)=O)cc1 (racemic) [Compound 1, (rac)-acetic acid 1-(4-acetoxy-phenyl)-allyl ester]
character of mayonnaise base (oral cavity): warm/hot, spicy and pungent character
sensation imparted by mouthwash base (oral cavity; 100 ppm compound): warm/hot, spicy and pungent sensation
character of toothpaste base (oral cavity; 100 ppm compound): warm/hot, spicy and pungent character
character of sour cream (oral cavity): warm/hot, spicy and pungent character without a lingering effect
character of vegetable dip (oral cavity): warm/hot, peppery and pungent character without any lingering effect
anti-tumor activity (tumor): anti-tumor activity
anti-fungal activity (fungi): anti-fungal activity
anti-ulcer activity [1]: anti-ulcer activity
inhibition of tumor promoter-induced Epstein-Barr virus activation (Epstein-Barr virus): potent inhibitor
inhibition of xanthin oxidase (xanthin oxidase): inhibit xanthin oxidase

C=CC(OC(C)=O)c1ccc(OC(C)=O)c(OC)c1 (racemic) [Compound 2, (rac)-acetic acid 1-(4-acetoxy-3-methoxphenyl)-allyl ester]
character of orange flavored chewing gum (oral cavity; chewing gum, 1 g compound in the batch): warm/hot, peppery and pungent character, again without any lingering effect
anti-tumor activity (tumor): anti-tumor activity
anti-fungal activity (fungi): anti-fungal activity
inhibition of xanthin oxidase (xanthin oxidase): inhibit xanthin oxidase

C=CC(OC(=O)CC)c1ccc(OC(=O)CC)c(OC)c1 (racemic) [Compound 3, (rac)-propionic acid 1-(4-propionoxy-3-methoxyphenyl)-allyl ester]
sensation imparted by mouthwash base (oral cavity; 100 ppm compound): warm/hot, spicy and pungent sensation

CCC(OC(C)=O)c1ccc(OC(C)=O)cc1 (racemic) [Compound 6, (rac-)-acetic acid 1-(4-acetoxy-phenyl)-propyl ester]
character of mayonnaise base (oral cavity): warm/hot, spicy and pungent character
sensation imparted by mouthwash base (oral cavity; 100 ppm compound): warm/hot, spicy and pungent sensation
character of toothpaste base (oral cavity; 100 ppm compound): warm/hot, spicy and pungent character
character of pizza snack (potato chips) (oral cavity; potato chips with pizza flavor, dusted with 1000 ppm compound): warm/hot, peppery and pungent character
character of sour cream (oral cavity): warm/hot, spicy and pungent character without a lingering effect
character of vegetable dip (oral cavity): warm/hot, peppery and pungent character without any lingering effect

C=CC(OC(=O)CC)c1ccc(OC(=O)CC)cc1 (racemic) [Compound 4, (rac)-propionic acid 1-(4-propionoxy-phenyl)-allyl ester]
sensation imparted by mouthwash base (oral cavity; 100 ppm compound): warm/hot, spicy and pungent sensation

CCC(OC(C)=O)c1ccc(OC(C)=O)c(OC)c1 (racemic) [Compound 7, (rac)-acetic acid 1-(4-acetoxy-3-methoxy-phenyl)-propyl ester]
flavor of cordial base (oral cavity; 50 Proof cordial base with cinnamon flavor 0.2% by weight, 100 ppm compound): enhanced warm /hot, pungent flavor
character of mayonnaise base (oral cavity): warm/hot, spicy and pungent character
sensation imparted by mouthwash base (oral cavity; 100 ppm compound): warm/hot, spicy and pungent sensation
character of toothpaste base (oral cavity; 100 ppm compound): warm/hot, spicy and pungent character
character of sour cream (oral cavity): warm/hot, spicy and pungent character without a lingering effect
character of vegetable dip (oral cavity): warm/hot, peppery and pungent character without any lingering effect

C=CCC(OC(C)=O)c1ccc(OC(C)=O)cc1 (racemic) [Compound 9, (rac)-acetic acid 1-(4-acetoxyphenyl)-3-butenyl ester]
character of mayonnaise base (oral cavity): warm/hot, spicy and pungent character
sensation imparted by mouthwash base (oral cavity; 100 ppm compound): warm/hot, spicy and pungent sensation
character of onion dip (oral cavity; onion soup mix with regular fat sour cream, 1000 ppm compound): warm/hot, peppery and pungent character without a lingering effect
character of toothpaste base (oral cavity; 100 ppm compound): warm/hot, spicy and pungent character
character of sour cream (oral cavity): warm/hot, spicy and pungent character without a lingering effect
character of vegetable dip (oral cavity): warm/hot, peppery and pungent character without any lingering effect
